According to patent US4351948A, “Imidazole hydrazone derivatives” (priority 1980, dated 1982):
Where a name gives a salt, the structure may show the parent alone. Read-outs that look alike come from different tables or passages of the source.

Experiments:
Test in all cases: Antianaerobic activity, MIC by standard broth dilution method (Table II)
Type in all cases: cell-based
C. sporogenes ATCC 19404 = conditions: Clostridium sporogenes, ATCC19404, 24 h, read-out: Minimal Inhibitory Concentration (MIC)
Method: (§1) The activity of the compounds identified in the Table II below was tested for antianaerobic activity against one strain of Bacteroides fragilis, one strain of Bacteroides uniformis, one strain of Clostridium sporogenes and one strain of Trichomonas vaginalis as the test organism. The methods used involved determining the minimum inhibitory concentration by the standard broth dilution method. The values for metronidazole (2-methyl-5-nitro-1H-imidazole-1-ethanol) are given above for reference purposes. For convenience the compounds are referred to by an internal reference number (an HC number) and this is correlated with the number of the Example wherein its production is described.

B. uniformis ATCC 8492 = conditions: Bacteroides uniformis, ATCC8492, 24 h, read-out: Minimal Inhibitory Concentration (MIC)
Method: as §1, with “The values for metronidazole (2-methyl-5-nitro-1H-imidazole-1-ethanol) are given above for reference purposes.” left out

B. fragilis ATCC 23745 = conditions: Bacteroides fragilis, ATCC23745, 24 h, read-out: Minimal Inhibitory Concentration (MIC)
Method: as §1, with “The values for metronidazole (2-methyl-5-nitro-1H-imidazole-1-ethanol) are given above for reference purposes.” left out

T. vaginalis ATCC 30001 = conditions: Trichomonas vaginalis, ATCC30001, 24 h, read-out: Minimal Inhibitory Concentration (MIC)
Method: as §1, with “The values for metronidazole (2-methyl-5-nitro-1H-imidazole-1-ethanol) are given above for reference purposes.” left out

Row | Structure (SMILES) | MIC (C. sporogenes ATCC 19404; Test 1) | MIC (C. sporogenes ATCC 19404; Test 2) | MIC (C. sporogenes ATCC 19404; Test 3) | MIC (B. uniformis ATCC 8492; Test 1) | MIC (B. uniformis ATCC 8492; Test 2) | MIC (B. uniformis ATCC 8492; Test 3) | MIC (B. fragilis ATCC 23745; Test 1) | MIC (B. fragilis ATCC 23745; Test 2) | MIC (B. fragilis ATCC 23745; Test 3) | MIC (T. vaginalis ATCC 30001; Test 1) | MIC (T. vaginalis ATCC 30001; Test 2) | MIC (T. vaginalis ATCC 30001; Test 3)
1 | CC(C(=NNc1ccc(Cl)cc1Cl)c1ccc(Cl)cc1)n1ccnc1 (stereo not drawn) [HC-433, 1(4-chlorophenyl)-2-(1H-imidazol-1-yl) propanone, 2,4-dichlorophenylhydrazone, hydrochloride] | 1 µg/mL | 2.5 µg/mL | 2.5 µg/mL | 0.5 µg/mL | 5 µg/mL | 2.5 µg/mL | 1 µg/mL | 2.5 µg/mL | 2.5 µg/mL | 75 µg/mL | 50 µg/mL | 50 µg/mL
2 | Cl.FC(F)(F)c1ccc(C(Cn2ccnc2)=NNc2c(Cl)cccc2Cl)cc1 [HC-438, 1-(4-trifluoromethylphenyl)-2-(1H-imidazol-1-yl)ethanone, 2,6-dichlorophenylhydrazone, hydrochloride] | 2.5 µg/mL | 7.5 µg/mL | 2.5 µg/mL | 5 µg/mL | 5 µg/mL | 5 µg/mL | 5 µg/mL | 7.5 µg/mL | 5 µg/mL | 25 µg/mL | 50 µg/mL | 75 µg/mL
3 | Cl.Clc1ccc(NN=C(Cn2ccnc2)c2ccccc2)cc1Cl [HC-442, 1-phenyl-2-(1H-imidazol-1-yl)ethanone, 3,4-dichlorophenylhydrazone, hydrochloride] | 5 µg/mL | 2.5 µg/mL | 2.5 µg/mL | 2.5 µg/mL | 5 µg/mL | 5 µg/mL | 2.5 µg/mL | 5 µg/mL | 5 µg/mL | 50 µg/mL | 75 µg/mL | 100 µg/mL
4 | COc1ccc(C(Cn2ccnc2)=NNc2cc(Cl)ccc2Cl)cc1.Cl [HC-464, 1-(4-methoxyphenyl)-2-(1H-imidazol-1-yl)ethanone, 2,5-dichlorophenylhydrazone, hydrochloride] | 2.5 µg/mL | 5 µg/mL | 2.5 µg/mL | 2.5 µg/mL | 2.5 µg/mL | 2.5 µg/mL | 2.5 µg/mL | 5 µg/mL | 5 µg/mL | 10 µg/mL | 50 µg/mL | 50 µg/mL
5 | Cl.Clc1cccc(Cl)c1NN=C(Cn1ccnc1)c1ccc(Br)s1 [HC-466, 1-(5-bromothien-2-yl)-2-(1H-imidazol-1-yl)ethanone, 2,6-dichlorophenylhydrazone, hydrochloride] | 5 µg/mL | 5 µg/mL | 5 µg/mL | 1 µg/mL | 5 µg/mL | 5 µg/mL | 1 µg/mL | 5 µg/mL | 5 µg/mL | 50 µg/mL | 50 µg/mL | 50 µg/mL
6 | Cl.Clc1ccc(Cl)c(NN=C(Cn2ccnc2)c2ccccc2Cl)c1 [HC-469, 1-(2-chlorophenyl)-2-(1H-imidazol-1-yl)ethanone, 2,5-dichlorophenylhydrazone, hydrochloride] | 2.5 µg/mL | 7.5 µg/mL | 1 µg/mL | 5 µg/mL | 1 µg/mL | 2.5 µg/mL | 5 µg/mL | 5 µg/mL | 10 µg/mL | 50 µg/mL | 75 µg/mL | 100 µg/mL
7 | Cl.Fc1ccc(C(Cn2ccnc2)=NNc2ccc(Cl)c(Cl)c2)cc1 [HC-506, 1-(4-fluorophenyl)-2-(1H-imidazol-1-yl)ethanone, 3,4-dichlorophenylhydrazone, hydrochloride] | > 50 µg/mL | > 50 µg/mL |  | 5 µg/mL | 2.5 µg/mL |  | 5 µg/mL | 5 µg/mL |  |  |  | 
8 | Cl.Fc1ccccc1C(Cn1ccnc1)=NNc1cccc(Cl)c1Cl [HC-507, 1-(2-fluorophenyl)-2-(1H-imidazol-1-yl)ethanone, 2,3-dichlorophenylhydrazone, hydrochloride] | 2.5 µg/mL | 2.5 µg/mL |  | 5 µg/mL | 2.5 µg/mL |  | 2.5 µg/mL | 5 µg/mL |  |  |  | 
